# Data as given in patent US12522575B2, “2-diarylmethyl-4-aminotetrahydropyran derivatives and related compounds as anticancer, antiinflammatory, antifibrotic and neuroprotective agents” (Atux Iskay LLC, priority 2021, dated 2026).
# Tested on: bleomycin-induced pulmonary fibrosis
# Test: Bleomycin induced lung fibrosis model in mice
# Assay type: in vivo
# Description: Bleomycin exposure reproducibly induces lung fibrosis in mice and bleomycin induced lung fibrosis is commonly used as an animal model to assess the efficacy of experimental therapeutics for idiopathic pulmonary fibrosis, see for example Tashiro et al, “Exploring Animal Models that Resemble Idiopathic Pulmonary Fibrosis”, Front. Med. 4:118 (2017). doi: 10.3389/fmed.2017.0018. Herein presented are data on the efficacy of Example 6 (Ex-6) in cellular models of lung fibrosis and in a mouse bleoycin induced lung fibrosis model, see FIGS. 1 through 8.
# In brief, the animal model consisted of bleomycin administration using a combined protocol previously described by Wyman et al (Wyman, A. E., et al., “Sirtuin 7 is decreased in pulmonary fibrosis and regulates the fibrotic phenotype of lung fibroblasts”. Am J Physiol Lung Cell Mol Physiol, 2017. 312 (6): p. L945-L958.) and Geraghty et al (Geraghty, P. and Foronjy, R. ‘Protein Transfection of Mouse Lung’. J Vis Exp, (75), e50080 2013 May 15). After sedation was achieved (87.5 mg/kg Ketamine/12.5 mg/kg xylazine), mice were suspended from their upper incisors (see Geraghty et al. for visual publication of intratracheal delivery). The oropharynx was opened so that a catheter/Penn Century MicroSprayer (Penn-Century, Wyndmoor, Philadelphia, PA) can be introduced into the trachea. The vocal cords and trachea were visualized by placing a light source against the trachea of the mouse. The MicroSprayer was inserted intratracheally, and the bleomycin solution (0.075 U/mouse) was instilled in 50 μL of sterile PBS. The MicroSprayer creates a mist rather than droplets, for better tissue distribution and reduces the risk of animal suffocation. Control mice were instilled with 50 μl of sterile PBS with no additives. This intratracheal maneuvering and delivery took about 30 seconds to complete. Animals were allowed to recover from sedation. Water was supplemented with the compound/drug beginning either before, 7 or 20 days after bleomycin treatment.
# Ex-6 was dosed at 5 mg/kg in the bleomycin induced fibrosis. In vivo data is shown in FIG. 3: C57BL/6J mice were orally administered 5 mg/kg Ex-6 once daily, beginning on the same day as bleomycin (BLM) treatment to test if activation of PP2A could prevent establishment of idiopathic pulmonary fibrosis (IPF). […] Differences were shown in compliance, tissue elastance, and forced vital capacity of 3-month-old C57BL/6J mice following administration of vehicle or Example 6 after tracheal instillation of saline or bleomycin, indicating prevention of bleomycin-induced pulmonary fibrosis in mice by administration of Example 6. Graphs were represented as mean±S.E.M, where n=7 animals per group. P values, shown when comparing both treatments connected by a line, were determined by Student t-tests. […]
structure (smiles),measurement,setting,value
"O=S(=O)(NC1CCOC(C2c3ccc(F)cc3CCc3cc(F)ccc32)C1)c1ccc(OC(F)(F)F)cc1 (stereo not shown) [Example 6, N-(2-(2,8-difluoro-10,11-dihydro-5H-dibenzo[a,d][7]annulen-5-yl)tetrahydro-2H-pyran-4-yl)-4-(trifluoromethoxy)benzenesulfonamide]","bleomycin-induced PV loop changes, compliance, tissue elastance and forced vital capacity (FVC)","5 mg/kg orally once daily from the day of bleomycin, C57BL/6J mice (FIG. 6)",prevented
same,collagen deposition in lung (trichrome staining),"bleomycin mice, vs vehicle control (FIG. 7)",attenuates collagen deposition
same,"bleomycin-induction of fibrosis related genes Acta2, Ccn2, Col1a1, FN1 in lung tissue","bleomycin mice, vs vehicle control (FIG. 8)",suppressed
same,"toxicity in mice (external appearance, behavior, body weight)","three-week administration, vs vehicle groups",no obvious toxicity
